{"source": "patent US12180255B2", "about": "“Compositions and methods for derepressing RE1 silencing transcription factor target genes” (Alcamena Stem Cell Therapeutics, LLC, priority 2019, dated 2024)", "key": {"[1]": {"system": "L5 DRGs", "experiment": "qRT-PCR mRNA expression in ex vivo cultured L5 DRGs", "type": "cell-based, Sprague Dawley rat", "details": "for Increase, BDNF mRNA / Increase, KV4.3 mRNA / Increase, KV7.2 mRNA / Increase, NGF mRNA / Increase, Nav1.8 mRNA / Increase, OPRM1 mRNA: DRG", "description": "FIG. 15. […] Error bars =standard error of the mean.\nL5 DRGs were dissected from adult male rats and plated in 12-well plates pre-coated with poly-D-Lysine (PDL) and laminin in a minimal volume of medium (250 ul Neurobasal™-A medium (GIBCO) supplemented with B27 (GIBCO), 50 ng/ml NGF (Sigma-Aldrich) and penicillin streptomycin) to allow attachment to the culture plate. One day after plating, DRGs were incubated with RPP (SEQ. ID NO: 12: 1 μM, 3 μM or 10 μM in culture medium, FIGS. 14 and 16; SEQ ID NOS: 13 and 14: 3 μM, FIG. 15) for 48 h. For RNA expression analysis, DRGs were lysed in 300 μl of Qiazol in a 1.5 ml tube containing Bullet Blender Pink Beads using a Bullet Blender Tissue Homogenizer (NextAdvance). Total RNA was extracted using RNeasy Midi Kit (Qiagen) according to manufacturer's instructions. Purified RNA was quantified with NanoDrop 2000 (ThermoFIsher), and reverse transcription was run using High Capacity cDNA Reverse Transcription Kit (Applied Biosystems) and 2 ng/ul RNA per reaction. For qRT-PCR, 5 ul of cDNA (corresponding to 10 ng of RNA) were mixed with to 10 ul SsoAdvanced™ Universal SYBR® Green Supermix (BioRad) and 1 ul of each primer (final primer concentration 500 nM each). Reactions were run in triplicates in a QuantStudio™ 7 Flex Real-Time PCR system (Applied Biosystems). Amplification data were analyzed using the comparative cycle threshold (ΔΔCt) method and β-actin as calibrator. Primers were as follows: β-actin: F-[…] (SEQ ID NO: 340), R-[…] (SEQ ID NO: 333); KV4.3: F-[…] (SEQ ID NO: 341), R-[…] (SEQ ID NO: 342); KV7.2 F-[…] AG (SEQ ID NO: 343), R-[…] (SEQ ID NO: 344); OPRM1: F-[…] (SEQ ID NO: 345), R-[…] (SEQ ID NO: 346)."}, "[2]": {"target": "T1, CTDSP1 (Homo sapiens, UniProt Q9GZU7)", "T1 construct": "GSGS linker + His6 (C)", "T1 sequence (Q9GZU7 with tags, fused parts or gaps)": "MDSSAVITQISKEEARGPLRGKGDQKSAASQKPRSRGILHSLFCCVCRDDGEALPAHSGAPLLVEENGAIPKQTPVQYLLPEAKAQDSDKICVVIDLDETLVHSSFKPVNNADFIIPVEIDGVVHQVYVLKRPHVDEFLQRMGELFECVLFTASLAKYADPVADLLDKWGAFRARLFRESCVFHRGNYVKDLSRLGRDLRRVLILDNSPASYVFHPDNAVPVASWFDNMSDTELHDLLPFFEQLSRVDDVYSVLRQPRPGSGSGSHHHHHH", "experiment": "In vitro CTDSP1 phosphatase activity on phosphorylated REST peptide", "type": "biochemical", "details": "phosphorylated REST peptide substrate; read-out: EC50, inhibition of CTDSP1 activity", "description": "FIG. 25. In vitro CTDSP1 phosphatase activity (relative to GST control) on the REST peptide (TEDpSPPp[…] (SEQ ID NO: 329)) as a substrate after exposure to 1 μM of RPP (SEQ ID NO: 1) or one of its variants (Table 3).\nFIG. 26. […] N=5, error bars are standard deviation.\nResults: FIG. 25—The top 51 most abundant RPP variants identified in the RNA display/protein evolution screen are listed in-Table 3 in the order of most (V1) to least (V51) abundant peptides. The primers used to make these peptides are listed in-Table 5. A phosphatase activity screen (Table 6, FIG. 25) was used to assess the ability of the top 51 RPPV to inhibit CTDSP1 phosphatase activity at amino acids 861 and 864 on the endogenous phosphorylated REST peptide (TEDpSPPp[…] (SEQ ID NO: 329)).\nThe phosphorylated REST peptide (TEDpSPPp[…] (SEQ ID NO: 329)) was synthesized by GeneScript. Phosphatase reactions were performed with 10 mM Tris pH 8, 10 mM MgCl2, 100 nM CTDSP1, 0.5 μM phosphate sensor (Thermo Fischer), 50 μM of REST peptide and various concentrations of peptide-GST fusions at room temperature for 10 min. All assays were performed in 96-well pates (Corning P/N 3686) rinsed with water 10 times. Fluorescence was measured by BioTek Synergy HTX using kinetic read with excitation at 420/27 nm and emission at 485/20 nm."}, "[3]": {"target": "T2, PPA1 (Homo sapiens, UniProt Q15181)", "T2 sequence (Q15181 2-289 limits assumed)": "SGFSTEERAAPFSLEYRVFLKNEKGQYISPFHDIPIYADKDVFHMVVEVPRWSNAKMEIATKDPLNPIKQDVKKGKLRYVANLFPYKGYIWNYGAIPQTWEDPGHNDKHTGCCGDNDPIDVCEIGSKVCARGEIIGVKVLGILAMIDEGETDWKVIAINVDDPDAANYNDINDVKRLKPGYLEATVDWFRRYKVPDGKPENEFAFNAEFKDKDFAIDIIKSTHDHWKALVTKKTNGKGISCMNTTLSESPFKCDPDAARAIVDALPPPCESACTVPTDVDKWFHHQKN", "experiment": "Off target phosphatase activity on phosphorylated REST peptide", "type": "biochemical", "details": "10000 nM RPP"}, "[4]": {"details": "various concentrations, 48 h, relative to water control"}, "[5]": {"details": "whole DRG ex vivo, 3 μM, 48 hours"}, "[6]": {"details": "whole DRG ex vivo, 10 μM, 48 hours"}}, "note": "“And” between values parts separate entries of the source, which are not always exact repeats. Equal values may be shown once. Where a SMILES comes first, the peptide text is derived from it. [ ]: non-standard residue; d: D form. Gly(Dodecyl) = CCCCCCCCCCCC[C@H](N)C(=O)O"}
{"molecule": "CCCCCCCCCCCC[C@@H]1NC(=O)[C@@H](CCCNC(=N)N)NC(=O)[C@@H](CCCNC(=N)N)NC(=O)[C@@H](Cc2c[nH]c3ccccc23)NC(=O)[C@@H](Cc2c[nH]c3ccccc23)NC(=O)[C@@H](CCCNC(=N)N)NC(=O)[C@@H](CCC(=O)O)NC(=O)[C@@H](CC(=O)O)NC(=O)[C@@H](CC(C)C)NC(=O)[C@@H](CCC(=O)O)NC(=O)[C@H]2CCCN2C(=O)[C@H]2CCCN2C(=O)[C@@H](CCC(=O)O)NC(=O)[C@H]2CCCN2C(=O)[C@H]2CCCN2C(=O)[C@@H](CC(C)C)NC(=O)[C@H]2CCCN2C(=O)[C@@H](CCCCN)NC(=O)[C@@H](CCCNC(=N)N)NC(=O)[C@@H](CCCNC(=N)N)NC(=O)[C@@H](CCCNC(=N)N)NC(=O)[C@@H](CCCNC(=N)N)NC(=O)[C@@H](CCCNC(=N)N)NC1=O", "note": "[SEQ ID NO: 12] (cyclo([dR][dW][dW][dR][dR][Gly(Dodecyl)][dR][dR][dR][dR][dR][dK][dP][dL][dP][dP][dE][dP][dP][dE][dL][dD][dE]))", "values": [{"measurement": "Increase, BDNF mRNA", "setting": "[1]; 0.3 μM, 48 h", "value": 1.4, "unit": "x"}, {"measurement": "Increase, BDNF mRNA", "setting": "[1]; 1 μM, 48 h", "value": 1.3, "unit": "x"}, {"measurement": "Increase, KV4.3 mRNA", "setting": "[1]; 1 μM, 48 h", "value": 0, "unit": "x"}, {"measurement": "Increase, KV7.2 mRNA", "setting": "[1]; 1 μM, 48 h", "value": 0, "unit": "x"}, {"measurement": "Increase, NGF mRNA", "setting": "[1]; 1 μM, 48 h", "value": "No affect was observed"}, {"measurement": "Increase, Nav1.8 mRNA", "setting": "[1]; 1 μM, 48 h", "value": 0.8, "unit": "x"}, {"measurement": "Increase, OPRM1 mRNA", "setting": "[1]; 1 μM, 48 h", "value": 1.2, "unit": "x"}, {"measurement": "Increase, NGF mRNA", "setting": "[1]; 1 μM, 48 h, listed as 12", "value": 0.9, "unit": "x"}, {"measurement": "Increase, BDNF mRNA", "setting": "[1]; 3 μM, 48 h", "value": 1.3, "unit": "x"}, {"measurement": "Increase, KV4.3 mRNA", "setting": "[1]; 3 μM, 48 h", "value": 0, "unit": "x"}, {"measurement": "Increase, KV7.2 mRNA", "setting": "[1]; 3 μM, 48 h", "value": 6.7, "unit": "x"}, {"measurement": "Increase, NGF mRNA", "setting": "[1]; 3 μM, 48 h", "value": 1.25, "unit": "x"}, {"measurement": "Increase, Nav1.8 mRNA", "setting": "[1]; 3 μM, 48 h", "value": 2.6, "unit": "x"}, {"measurement": "Increase, OPRM1 mRNA", "setting": "[1]; 3 μM, 48 h", "value": 3, "unit": "x"}, {"measurement": "Increase, BDNF mRNA", "setting": "[1]; 10 μM, 48 h", "value": 1.7, "unit": "x"}, {"measurement": "Increase, KV4.3 mRNA", "setting": "[1]; 10 μM, 48 h", "value": 1.9, "unit": "x"}, {"measurement": "Increase, KV7.2 mRNA", "setting": "[1]; 10 μM, 48 h", "value": 7.5, "unit": "x"}, {"measurement": "Increase, NGF mRNA", "setting": "[1]; 10 μM, 48 h", "value": 1.9, "unit": "x"}, {"measurement": "Increase, Nav1.8 mRNA", "setting": "[1]; 10 μM, 48 h", "value": 4, "unit": "x"}, {"measurement": "Increase, OPRM1 mRNA", "setting": "[1]; 10 μM, 48 h", "value": 3.9, "unit": "x"}, {"measurement": "mRNA expression of BDNF and NGF (in words)", "setting": "[1]; [4]", "value": "increases expression of BDNF and NGF"}, {"measurement": "mRNA expression of KV4.3, KV7.2, Nav1.8 and OPRM1 (in words)", "setting": "[1]; [4]", "value": "increases expression of KV4.3, KV7.2, Nav1.8 and OPRM1"}, {"measurement": "increase of NGF", "setting": "[1]; whole DRG ex vivo, 3 μM", "value": "approximately 50%"}, {"measurement": "induction of KV4.3 compared to control", "setting": "[1]; [5]", "value": "approximately 0 times"}, {"measurement": "induction of Nav1.8 compared to control", "setting": "[1]; [5]", "value": "2.9 times and ~3 times"}, {"measurement": "increase of BDNF expression", "setting": "[1]; whole DRG ex vivo, 10 μM", "value": "~75", "unit": "%"}, {"measurement": "increase of NGF", "setting": "[1]; whole DRG ex vivo, 10 μM", "value": "~2", "unit": "times"}, {"measurement": "induction of KV7.2 compared to control", "setting": "[1]; [6]", "value": "9 times and ~7 times"}, {"measurement": "induction of Nav1.8 compared to control", "setting": "[1]; [6]", "value": "4.8 times and ~5 times"}, {"measurement": "increase of BDNF expression", "setting": "[1]; whole DRG ex vivo, 0.3, 1, and 3 μM", "value": "approximately 25%"}, {"measurement": "EC50", "setting": "[2]", "value": "~20", "unit": "nM"}, {"measurement": "% Activity (Average N = 5)", "setting": "[3]", "value": 101.125, "unit": "%"}]}
